In the supplement of paper PMC10307832:

Assays:
Assay in all cases: relative viability (nuclei count vs DMSO), 5 days (fraction); higher = more cells survive
[1] = compound: C1CSC2=C(C(=O)N1)SC3=C2C=C(C=C3)O [kb NB 142-70] + CC(=O)c1c(C)c2cnc(Nc3ccc(N4CCNCC4)cn3)nc2n(C2CCCC2)c1=O [Palbociclib] (partner 0.5 µM)
Procedure, shortened: (§1)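 Lung cancer cell lines in 1536-well plates got either a single drug or a fixed anchor-drug dose together with five library-drug doses (not always all listed) in √10 steps, by pin tool, on the day after seeding. Nuclei were counted after 5 days, and relative viability is the treated-to-vehicle ratio of nuclei counts. Values are medians of duplicate plates.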

[2] = compound: NCC(=O)Nc1ccc(-n2nc(C(F)(F)F)cc2-c2ccc3c(ccc4ccccc43)c2)cc1 + CS(=O)(=O)CCNCc1ccc(-c2ccc3ncnc(Nc4ccc(OCc5cccc(F)c5)c(Cl)c4)c3c2)o1 [Lapatinib] (partner 2 µM)
Procedure, shortened: as §1

[3] = compound: NCC(=O)Nc1ccc(-n2nc(C(F)(F)F)cc2-c2ccc3c(ccc4ccccc43)c2)cc1 + Cc1nc(NC(=O)N2CCC[C@H]2C(N)=O)sc1-c1ccnc(C(C)(C)C(F)(F)F)c1 [Alpelisib] (partner 2 µM)
Procedure, shortened: as §1

[4] = compound: NCC(=O)Nc1ccc(-n2nc(C(F)(F)F)cc2-c2ccc3c(ccc4ccccc43)c2)cc1 + Nc1ncn([C@H]2C[C@H](O)[C@@H](CO)O2)c(=O)n1 [Decitabine] (partner 2 µM)
Procedure, shortened: as §1

| Cell Line | relative viability ([1]; first compound 0.1 µM) | relative viability ([1]; first compound 1 µM) | relative viability ([1]; first compound 3.162 µM) | relative viability ([2]; first compound 0.02 µM) | relative viability ([2]; first compound 0.06325 µM) | relative viability ([2]; first compound 0.2 µM) | relative viability ([2]; first compound 0.6325 µM) | relative viability ([2]; first compound 2 µM) | relative viability ([3]; first compound 0.02 µM) | relative viability ([3]; first compound 0.06325 µM) | relative viability ([3]; first compound 0.2 µM) | relative viability ([3]; first compound 0.6325 µM) | relative viability ([3]; first compound 2 µM) | relative viability ([4]; first compound 0.02 µM) | relative viability ([4]; first compound 0.06325 µM) | relative viability ([4]; first compound 0.2 µM) | relative viability ([4]; first compound 0.6325 µM) | relative viability ([4]; first compound 2 µM) |
| --- | --- | --- | --- | --- | --- | --- | --- | --- | --- | --- | --- | --- | --- | --- | --- | --- | --- | --- |
| COR-L 105 | 0.432 | 0.369 | 0.433 | 0.418 | 0.33 | 0.401 | 0.39 | 0.437 | 0.911 | 1.12 | 1.26 | 0.896 | 0.969 | 0.726 | 0.588 | 0.698 | 0.635 | 0.653 |
| RERF-LC-KJ | 1.1 | 1.18 | 0.983 | 0.955 | 0.828 | 0.909 | 0.891 | 0.82 | 0.848 | 0.899 | 0.734 | 0.883 | 0.937 | 0.758 | 0.791 | 0.673 | 0.78 | 0.641 |
| LXF-289 | 0.578 | 0.613 | 0.567 | 0.953 | 0.953 | 0.916 | 0.891 | 0.887 | 1.08 | 1.08 | 1.09 | 1.06 | 1.01 | 0.376 | 0.388 | 0.371 | 0.416 | 0.333 |
| PC-14 | 0.557 | 0.636 | 0.496 | 0.381 | 0.277 | 0.305 | 0.305 | 0.37 | 1.04 | 0.952 | 1.02 | 0.889 | 1.04 | 0.259 | 0.236 | 0.209 | 0.258 | 0.23 |
| NCI-H650 | 0.362 | 0.422 | 0.394 | 0.665 | 1.06 | 0.934 | 0.87 | 1.25 | 0.882 | 1.24 | 1.3 | 1.13 | 1.37 | 0.34 | 0.295 | 0.443 | 0.315 | 0.367 |
| NCI-H1666 | 0.581 | 0.591 | 0.693 | 0.59 | 0.61 | 0.588 | 0.744 | 0.604 | 1.07 | 0.869 | 0.852 | 0.937 | 1.09 | 0.771 | 0.567 | 0.778 | 0.746 | 0.652 |
| NCI-H2085 | 0.466 | 0.452 | 0.367 | 0.718 | 0.78 | 0.742 | 0.813 | 0.818 | 0.963 | 0.978 | 0.943 | 0.972 | 0.965 | 0.577 | 0.519 | 0.592 | 0.556 | 0.534 |
| NCI-H1734 | 0.365 | 0.363 | 0.279 | 1.05 | 1.01 | 1.15 | 1.03 | 0.853 | 0.748 | 0.759 | 0.751 | 0.671 | 0.775 | 0.545 | 0.497 | 0.488 | 0.485 | 0.534 |
| NCI-H2126 | 0.364 | 0.373 | 0.345 | 0.792 | 0.763 | 0.787 | 0.793 | 0.751 | 0.784 | 0.774 | 0.724 | 0.765 | 0.788 | 0.568 | 0.568 | 0.583 | 0.596 | 0.572 |
| EMC-BAC-2 | 0.524 | 0.553 | 0.516 | 0.859 | 0.925 | 0.903 | 0.9 | 0.891 | 0.742 | 0.75 | 0.764 | 0.772 | 0.715 | 1.02 | 0.998 | 1.05 | 0.948 | 0.944 |
| NCI-H1993 | 0.688 | 0.583 | 0.638 | 0.754 | 0.707 | 0.859 | 0.909 | 0.901 | 0.731 | 0.654 | 0.612 | 0.621 | 0.762 | 0.558 | 0.634 | 0.663 | 0.611 | 0.64 |
| NCI-H520 | 0.234 | 0.21 | 0.164 | 0.995 | 0.869 | 0.935 | 0.938 | 0.963 | 0.979 | 0.982 | 1.04 | 0.92 | 0.896 | 0.562 | 0.546 | 0.505 | 0.449 | 0.587 |
| NCI-H647 | 0.289 | 0.372 | 0.414 | 1.2 | 1.07 | 1.21 | 0.953 | 0.631 | 1.31 | 1.15 | 1.21 | 1.12 | 0.982 | 0.44 | 0.436 | 0.423 | 0.436 | 0.301 |
| NCI-H1792 | 0.586 | 0.722 | 0.836 | 1 | 0.948 | 0.918 | 0.933 | 0.857 | 0.67 | 0.859 | 0.77 | 0.751 | 0.736 | 0.705 | 0.569 | 0.479 | 0.605 | 0.582 |
| SK-LU-1 | 0.404 | 0.412 | 0.359 | 0.87 | 0.841 | 0.887 | 0.905 | 0.929 | 0.913 | 1.08 | 1.3 | 0.891 | 0.977 | 0.6 | 0.658 | 0.734 | 0.615 | 0.633 |
| NCI-H2009 | 0.286 | 0.304 | 0.285 | 0.872 | 0.948 | 0.868 | 0.935 | 0.958 | 1.21 | 1.11 | 1.19 | 1.1 | 1.16 | 0.337 | 0.457 | 0.409 | 0.349 | 0.408 |
| LOU-NH91 | 0.494 | 0.536 | 0.417 | 0.848 | 0.678 | 0.781 | 0.797 | 0.767 | 0.789 | 0.788 | 0.702 | 0.775 | 0.799 | 0.836 | 0.829 | 0.816 | 0.849 | 0.84 |
| NCI-H2405 | 0.552 | 0.563 | 0.499 | 1.05 | 1.12 | 1.13 | 1.02 | 1.13 | 0.851 | 0.826 | 0.831 | 0.782 | 0.923 | 0.686 | 0.759 | 0.837 | 0.723 | 0.754 |
| LCLC-97TM1 | 0.229 | 0.216 | 0.193 | 0.816 | 1.13 |  | 0.981 | 0.893 | 0.206 | 0.271 |  | 0.239 | 0.206 | 0.237 | 0.24 | 0.252 | 0.19 | 0.221 |
| NCI-H727 | 0.681 | 0.653 | 0.678 | 1.02 | 0.968 | 0.655 | 0.917 | 0.9 | 0.636 | 0.561 | 0.614 | 0.531 | 0.686 | 0.941 | 0.647 | 0.869 | 0.874 | 0.812 |
| H3255 | 0.323 | 0.314 | 0.316 | 0.276 | 0.268 | 0.231 | 0.258 | 0.268 | 0.782 | 0.651 | 0.746 | 0.811 | 0.731 | 0.669 | 0.479 | 0.643 | 0.715 | 0.667 |
| SK-MES-1 | 0.343 | 0.424 | 0.402 | 0.485 | 0.403 | 0.546 | 0.455 | 0.46 | 1.02 | 0.981 | 0.925 | 0.816 | 0.919 | 0.386 | 0.36 | 0.461 | 0.359 | 0.4 |
| NCI-H1437 | 0.337 | 0.297 | 0.279 | 0.768 | 0.76 | 0.751 | 0.84 | 0.78 | 0.944 | 0.995 | 0.999 | 0.913 | 0.918 | 0.563 | 0.576 | 0.634 | 0.616 | 0.547 |
| LU99A | 0.379 | 0.447 | 0.413 | 0.943 | 1.13 | 1.07 | 0.987 | 0.944 | 0.563 | 0.489 | 0.56 | 0.562 | 0.456 | 0.817 | 0.987 | 0.838 | 0.843 | 0.91 |
| HCC-827 | 0.525 | 0.459 | 0.396 | 0.178 | 0.201 | 0.172 | 0.199 | 0.23 | 1.02 | 1.08 | 0.957 | 0.944 | 1.02 | 0.315 | 0.212 | 0.31 | 0.309 | 0.335 |
| LK-2 | 0.661 | 0.476 | 0.352 | 0.966 | 1.06 | 0.884 | 1 | 0.874 | 1.04 | 1.04 | 0.979 | 1.14 | 0.969 | 0.283 | 0.268 | 0.249 | 0.319 | 0.278 |
| HCC-366 | 0.404 | 0.477 | 0.356 | 1.04 | 1.07 | 1.12 | 0.997 | 0.698 | 0.32 | 0.432 | 0.489 | 0.435 | 0.322 | 0.353 | 0.369 | 0.367 | 0.352 | 0.517 |
| BEN | 0.443 | 0.459 | 0.488 | 0.738 | 1.11 | 0.701 | 0.708 | 0.542 | 1.04 | 1.06 | 1.1 | 1.05 | 1.06 | 0.69 | 0.669 | 0.7 | 0.709 | 0.77 |
| NCI-H23 | 0.409 | 0.471 | 0.28 | 1.18 | 0.96 | 1.12 | 1.12 | 0.955 | 0.59 | 0.774 | 0.865 | 0.806 | 0.725 | 0.32 | 0.357 | 0.317 | 0.311 | 0.324 |
